Assay results published in US10562902B2, “IRAK4 inhibitor and use thereof” (BEIJING HANMI PHARMACEUTICAL CO., LTD., priority 2015, dated 2020).

The molecules below were run against IRAK4 kinase (Homo sapiens (Human), UniProt Q9NWZ3) (assay: IRAK4 kinase activity inhibition assay). Conditions: ADP-Glo kinase assay, 10 μM ATP, MBP substrate.
IRAK4 kinase, sequence (Q9NWZ3 whole entry): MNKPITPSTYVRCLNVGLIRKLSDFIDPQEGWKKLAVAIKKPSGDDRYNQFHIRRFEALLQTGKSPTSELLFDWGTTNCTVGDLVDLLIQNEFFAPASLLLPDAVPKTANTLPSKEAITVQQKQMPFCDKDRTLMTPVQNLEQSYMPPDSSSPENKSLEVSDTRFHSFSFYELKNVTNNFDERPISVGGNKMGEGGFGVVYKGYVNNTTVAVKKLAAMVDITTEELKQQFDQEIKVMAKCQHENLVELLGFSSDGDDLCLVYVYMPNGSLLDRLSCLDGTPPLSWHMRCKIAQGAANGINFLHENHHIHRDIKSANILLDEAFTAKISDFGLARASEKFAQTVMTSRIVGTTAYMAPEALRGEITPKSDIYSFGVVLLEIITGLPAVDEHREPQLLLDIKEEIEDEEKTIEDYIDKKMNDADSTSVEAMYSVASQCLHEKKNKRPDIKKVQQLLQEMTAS
Assay type: biochemical
Protocol: IRAK4 kinase (purchased from Life Technologies, Cat. No.: PR5612U) was diluted to 2 folds of the final concentration (the final concentration is […]) with reaction buffer (40 mM Tris-HC1, pH 7.5; 20 mM MgCl2; 0.1 mg/mL BSA; 1 mM DTT), and added to a 384-well plate at 5 μL/well. The test drugs were 10-fold serial diluted from 10 μM to set six concentration points and added to the test wells of the 384-well plate at 2.5 μL/well. After incubation for 10 min at 25° C., 10 μM of ATP and 0.1 μg/μL of an enzyme reaction substrate, myelin basic protein MBP (purchased from Signal Chem, Cat. No.: M42-51N) were added at 2.5 μL/well, and reacted at 25° C. for 60 minutes. After the reaction was completed, the kinase activity assay was performed using the ADP-Glo™ kinase assay kit (purchased from Promega, Cat. No.: V9102) according to the manufacture's instruction, i.e., 10 μL of ADP-Glo reaction reagent was first added and reacted at 25° C. for 40 minutes, 10 μL of the reaction mixture was taken and mixed with 10 μL of ADP-Glo detection reagent, and reacted at 25° C. for 30 minutes. The kinase activity was then detected, and the IC50 values of the test drugs were calculated.
Work on `CC(=O)N1CCC(Oc2nc(Nc3cc(C)ns3)nc3ccn(-c4cnn(C)c4)c23)CC1` [Example 73] yielded an IC50 of 100 to 1000 nM. Work on `Cc1cc(Nc2nc(OC3CCSCC3)c3c(ccn3-c3cnn(C)c3)n2)sn1` [Example 75] yielded an IC50 of 100 to 1000 nM. For `Cc1cc(Nc2nc(OC3CCS(=O)(=O)CC3)c3c(ccn3-c3cnn(C)c3)n2)sn1` [Example 76], the IC50 was 100 to 1000 nM. In the case of `Cn1cc(-n2ccc3nc(Nc4ccc[nH]4)nc(O[C@H]4CCOC4)c32)cn1` [Example 77], the IC50 is reported as at most 100 nM. `Cn1cc(-n2ccc3nc(Nc4cccs4)nc(O[C@H]4CCOC4)c32)cn1` [Example 78] showed an IC50 of at most 100 nM. For `Cn1cc(-n2ccc3nc(Nc4ccc(C#N)s4)nc(O[C@H]4CCOC4)c32)cn1` [Example 79], the IC50 was 100 to 1000 nM. `Cn1cc(-n2ccc3nc(Nc4cc(C#N)cs4)nc(O[C@H]4CCOC4)c32)cn1` [Example 80] was tested, and the IC50 was 100 to 1000 nM. For `Cn1cc(-n2ccc3nc(Nc4ccsc4)nc(O[C@H]4CCOC4)c32)cn1` [Example 81], the IC50 was 100 to 1000 nM. Molecule `Cc1cc(Nc2nc(O[C@H]3CCOC3)c3c(ccn3-c3cnn(C)c3)n2)cs1` [Example 82] has an IC50 of 100 to 1000 nM. Work on `Cc1cc(Nc2nc(O[C@H]3CCOC3)c3c(ccn3-c3cnn(C)c3)n2)on1` [Example 83] yielded an IC50 of 100 to 1000 nM. Molecule `Cc1cc(Nc2nc(O[C@H]3CCOC3)c3c(ccn3-c3cnn(C)c3)n2)[nH]n1` [Example 84] has an IC50 of 100 to 1000 nM. In the case of `Cn1cc(-n2ccc3nc(Nc4csc5ccccc45)nc(O[C@H]4CCOC4)c32)cn1` [Example 85], the IC50 is reported as 1000 to 10000 nM. `Cc1cc(Nc2nc(OC3CCOCC3)c3c(ccn3-c3ccn(C)c3)n2)sn1` [Example 86] showed an IC50 of 100 to 1000 nM. For `Cc1cc(Nc2nc(O[C@H]3CCOC3)c3c(ccn3-c3ccoc3)n2)sn1` [Example 87], the IC50 was at most 100 nM. `Cc1cc(Nc2nc(OC3CCOCC3)c3c(ccn3-c3ccoc3)n2)sn1` [Example 88] gave an IC50 of 100 to 1000 nM. Work on `Cc1cc(Nc2nc(OC3CCOCC3)c3c(ccn3-c3ccsc3)n2)sn1` [Example 89] yielded an IC50 of 100 to 1000 nM. For `CCn1cc(-n2ccc3nc(Nc4cc(C)ns4)nc(OC4CCOCC4)c32)cn1` [Example 90], the IC50 was 100 to 1000 nM. With `COCCn1cc(-n2ccc3nc(Nc4cc(C)ns4)nc(OC4CCOCC4)c32)cn1` [Example 91] the IC50 was 100 to 1000 nM. In the case of `Cc1cc(Nc2nc(OC3CCOCC3)c3c(ccn3-c3ccccc3)n2)sn1` [Example 92], the IC50 is reported as 100 to 1000 nM. `COc1ccccc1-n1ccc2nc(Nc3cc(C)ns3)nc(OC3CCOCC3)c21` [Example 93] was tested, and the IC50 was 1000 to 10000 nM. For `COc1cccc(-n2ccc3nc(Nc4cc(C)ns4)nc(OC4CCOCC4)c32)c1` [Example 94], the IC50 was 1000 to 10000 nM. Molecule `COc1ccc(-n2ccc3nc(Nc4cc(C)ns4)nc(OC4CCOCC4)c32)cc1` [Example 95] has an IC50 of 1000 to 10000 nM. In the case of `Cc1cc(Nc2nc(OC3CCOCC3)c3c(ccn3-c3cccc(N(C)C)c3)n2)sn1` [Example 96], the IC50 is reported as 1000 to 10000 nM. With `Cc1cc(Nc2nc(OC3CCOCC3)c3c(ccn3-c3ccncc3)n2)sn1` [Example 97] the IC50 was 100 to 1000 nM. Molecule `Cc1cc(Nc2nc(OC3CCOCC3)c3c(ccn3-c3cccnc3)n2)sn1` [Example 98] has an IC50 of 100 to 1000 nM. In the case of `COc1cncc(-n2ccc3nc(Nc4cc(C)ns4)nc(OC4CCOCC4)c32)c1` [Example 99], the IC50 is reported as 100 to 1000 nM. Work on `Cc1cc(Nc2nc(O[C@H]3CCOC3)c3c(ccn3-c3ccncc3)n2)sn1` [Example 100] yielded an IC50 of 100 to 1000 nM. Molecule `COc1cc(-n2ccc3nc(Nc4cc(C)ns4)nc(OC4CCOCC4)c32)ccn1` [Example 101] has an IC50 of 100 to 1000 nM. `Cc1cc(Nc2nc(OC3CCOCC3)c3c(ccn3-c3ccnnc3)n2)sn1` [Example 102] was tested, and the IC50 was 100 to 1000 nM. `Cc1cc(Nc2nc(OC3CCOCC3)c3c(ccn3-c3cncnc3)n2)sn1` [Example 103] gave an IC50 of 100 to 1000 nM. `Cc1cc(Nc2nc(OC3CCOCC3)c3c(ccn3-c3cccc4c3OCCO4)n2)sn1` [Example 104] was tested, and the IC50 was 100 to 1000 nM. Work on `Cn1cc(Nc2nc(O[C@H]3CCOC3)c3c(ccn3-c3cnn(C)c3)n2)cn1` [Example 105, (S)-(1-methyl-1H-pyrazol-4-yl)-[5-(1-methyl-1H-pyrazol-4-yl)-4-(tetrahydrofuran-3-yloxy)-5H-pyrrolo[3,2-d]pyrimidin-2-yl]amine] yielded an IC50 of at most 100 nM. `Cn1cc(-n2ccc3nc(Nc4cn[nH]c4)nc(O[C@H]4CCOC4)c32)cn1` [Example 106] showed an IC50 of at most 100 nM. `Cn1cc(-n2ccc3nc(Nc4cnn(CCF)c4)nc(O[C@H]4CCOC4)c32)cn1` [Example 107] gave an IC50 of at most 100 nM. For `Cn1cc(-n2ccc3nc(Nc4cnn(CCO)c4)nc(O[C@H]4CCOC4)c32)cn1` [Example 108], the IC50 was at most 100 nM. `Cn1cc(-n2ccc3nc(Nc4cnn(C5CCCCC5)c4)nc(O[C@H]4CCOC4)c32)cn1` [Example 109] gave an IC50 of 100 to 1000 nM. `Cn1cc(-n2ccc3nc(Nc4cnn(C5CCOCC5)c4)nc(O[C@H]4CCOC4)c32)cn1` [Example 110] was tested, and the IC50 was at most 100 nM. With `CN1CCC(n2cc(Nc3nc(O[C@H]4CCOC4)c4c(ccn4-c4cnn(C)c4)n3)cn2)CC1` [Example 111] the IC50 was at most 100 nM. In the case of `Cn1cc(-n2ccc3nc(Nc4cnn(-c5ccccc5)c4)nc(O[C@H]4CCOC4)c32)cn1` [Example 112], the IC50 is reported as 100 to 1000 nM. `Cn1cc(-n2ccc3nc(Nc4cnn(-c5ccncc5)c4)nc(O[C@H]4CCOC4)c32)cn1` [Example 113] gave an IC50 of at most 100 nM. `Cn1cc(-n2ccc3nc(Nc4cnn(-c5cccnc5)c4)nc(O[C@H]4CCOC4)c32)cn1` [Example 114] was tested, and the IC50 was at most 100 nM. In the case of `Cn1cc(-n2ccc3nc(Nc4cnoc4)nc(O[C@H]4CCOC4)c32)cn1` [Example 115], the IC50 is reported as 100 to 1000 nM. Molecule `Cn1cc(-n2ccc3nc(Nc4ccccc4)nc(O[C@H]4CCOC4)c32)cn1` [Example 116] has an IC50 of 100 to 1000 nM. In the case of `Cn1cc(-n2ccc3nc(Nc4cccnc4)nc(O[C@H]4CCOC4)c32)cn1` [Example 117], the IC50 is reported as 1000 to 10000 nM. Molecule `Cn1cc(-n2ccc3nc(Nc4ccc(N5CCOCC5)cc4)nc(O[C@H]4CCOC4)c32)cn1` [Example 118] has an IC50 of 100 to 1000 nM. `Cn1cc(-n2ccc3nc(Nc4ccc(C(=O)N5CCOCC5)cc4)nc(O[C@H]4CCOC4)c32)cn1` [Example 119] was tested, and the IC50 was 100 to 1000 nM. `Cn1cc(-n2ccc3nc(Nc4ccc5c(c4)CNC5=O)nc(O[C@H]4CCOC4)c32)cn1` [Example 120] was tested, and the IC50 was at most 100 nM. `CN1Cc2cc(Nc3nc(O[C@H]4CCOC4)c4c(ccn4-c4cnn(C)c4)n3)ccc2C1=O` [Example 121] was tested, and the IC50 was at most 100 nM. `Cn1cc(-n2ccc3nc(Nc4ccc5c(c4)C(=O)NC5)nc(O[C@H]4CCOC4)c32)cn1` [Example 122] gave an IC50 of 100 to 1000 nM. `Cn1cc(-n2ccc3nc(Nc4ccc5[nH]ncc5c4)nc(O[C@H]4CCOC4)c32)cn1` [Example 123] gave an IC50 of at most 100 nM. `Cn1cc(-n2ccc3nc(Nc4ccc5cn[nH]c5c4)nc(O[C@H]4CCOC4)c32)cn1` [Example 124] was tested, and the IC50 was 100 to 1000 nM. Work on `Cn1cc(-n2ccc3nc(Nc4ccc5ncsc5c4)nc(O[C@H]4CCOC4)c32)cn1` [Example 125] yielded an IC50 of 100 to 1000 nM. Molecule `CNC(=O)c1csc(Nc2nc(O[C@H]3CCOC3)c3c(ccn3-c3ccoc3)n2)c1` [Example 126] has an IC50 of at most 100 nM. With `CCNC(=O)c1csc(Nc2nc(OC(C)C)c3c(ccn3-c3cnn(C)c3)n2)c1` [Example 127] the IC50 was at most 100 nM. `CCNC(=O)c1csc(Nc2nc(OC3CCCC3)c3c(ccn3-c3cnn(C)c3)n2)c1` [Example 128] was tested, and the IC50 was 100 to 1000 nM. In the case of `CCNC(=O)c1csc(Nc2nc(OC3CCCCC3)c3c(ccn3-c3cnn(C)c3)n2)c1` [Example 129], the IC50 is reported as 100 to 1000 nM. With `CCNC(=O)c1csc(Nc2nc(OCCOC)c3c(ccn3-c3cnn(C)c3)n2)c1` [Example 130] the IC50 was at most 100 nM. Molecule `CCNC(=O)c1csc(Nc2nc(O[C@@H]3CCOC3)c3c(ccn3-c3cnn(C)c3)n2)c1` [Example 131] has an IC50 of at most 100 nM. In the case of `Cn1cc(-n2ccc3nc(Nc4cc(C(N)=O)cs4)nc(O[C@H]4CCOC4)c32)cn1` [Example 132], the IC50 is reported as at most 100 nM. Molecule `CCCNC(=O)c1csc(Nc2nc(O[C@H]3CCOC3)c3c(ccn3-c3cnn(C)c3)n2)c1` [Example 135] has an IC50 of 100 to 1000 nM. In the case of `CC(C)NC(=O)c1csc(Nc2nc(O[C@H]3CCOC3)c3c(ccn3-c3cnn(C)c3)n2)c1` [Example 136], the IC50 is reported as at most 100 nM. In the case of `Cn1cc(-n2ccc3nc(Nc4cc(C(=O)NCCF)cs4)nc(O[C@H]4CCOC4)c32)cn1` [Example 137], the IC50 is reported as at most 100 nM. `Cn1cc(-n2ccc3nc(Nc4cc(C(=O)NCC(F)(F)F)cs4)nc(O[C@H]4CCOC4)c32)cn1` [Example 138] gave an IC50 of at most 100 nM. `COCCNC(=O)c1csc(Nc2nc(O[C@H]3CCOC3)c3c(ccn3-c3cnn(C)c3)n2)c1` [Example 139] was tested, and the IC50 was at most 100 nM. Work on `Cn1cc(-n2ccc3nc(Nc4cc(C(=O)NCC5CCOCC5)cs4)nc(O[C@H]4CCOC4)c32)cn1` [Example 140] yielded an IC50 of at most 100 nM. `CN1CCC(CNC(=O)c2csc(Nc3nc(O[C@H]4CCOC4)c4c(ccn4-c4cnn(C)c4)n3)c2)CC1` [Example 141] showed an IC50 of at most 100 nM. `Cn1cc(-n2ccc3nc(Nc4cc(C(=O)NCc5cccs5)cs4)nc(O[C@H]4CCOC4)c32)cn1` [Example 142] gave an IC50 of 100 to 1000 nM. `Cn1cc(-n2ccc3nc(Nc4cc(C(=O)NC5CC5)cs4)nc(O[C@H]4CCOC4)c32)cn1` [Example 143] gave an IC50 of at most 100 nM. Work on `Cn1cc(-n2ccc3nc(Nc4cc(C(=O)NC5CCCCC5)cs4)nc(O[C@H]4CCOC4)c32)cn1` [Example 144] yielded an IC50 of 100 to 1000 nM. `CN1CCC(NC(=O)c2csc(Nc3nc(O[C@H]4CCOC4)c4c(ccn4-c4cnn(C)c4)n3)c2)CC1` [Example 145] showed an IC50 of at most 100 nM. Work on `Cn1cc(-n2ccc3nc(Nc4cc(C(=O)N[C@@H]5CCOC5)cs4)nc(O[C@H]4CCOC4)c32)cn1` [Example 146] yielded an IC50 of at most 100 nM. `Cn1cc(-n2ccc3nc(Nc4cc(C(=O)N[C@H]5CCOC5)cs4)nc(O[C@H]4CCOC4)c32)cn1` [Example 147] showed an IC50 of at most 100 nM.
